In Sander's compilation of Henry's law constants (doi:10.1016/s0378-3812(99)00193-4):

assay: Henry solubility constant Hcp at 298.15 K (mol/(m3 Pa)); conditions: reference: Ryu and Park (1999)

Row | Henry solubility constant Hcp | SMILES
1 | 6.1e-06 | CCCCCC [hexane]
2 | 2.2e-06 | CCCCCCCCC [nonane]
3 | 3.4e-06 | CCCCCCCC [octane]
4 | 0.00061 | CCCCCc1ccccc1 [pentylbenzene]
5 | 4.5e-06 | CCCCCCC [heptane]
6 | 0.0011 | CCc1ccccc1 [ethylbenzene]
7 | 0.0041 | ClCCl [dichloromethane]
8 | 0.0017 | c1ccccc1 [benzene]

Row | SMILES | Henry solubility constant Hcp
9 | ClC(Cl)=C(Cl)Cl [tetrachloroethene] | 0.00053
10 | ClC(Cl)(Cl)Cl [tetrachloromethane] | 0.00038
11 | Cc1ccccc1 [methylbenzene] | 0.0015
12 | Clc1ccccc1 [chlorobenzene] | 0.0019
13 | Cc1ccc(C)cc1 [1,4-dimethylbenzene] | 0.0014
14 | ClC=C(Cl)Cl [trichloroethene] | 0.00095
15 | CCCCc1ccccc1 [butylbenzene] | 0.00074
